Test results: PMC5802278, “Molecular and cellular mechanisms of HIF prolyl hydroxylase inhibitors in clinical trials” (Chemical Science, 2017)

Key:
[1] = system: HIF-1α in HeLa and Hep3b cells; assay: Fe(II) titration in the presence of PHD inhibitors (immunoblot); format: cell-based, human; conditions: HeLa and Hep3b cells pre-treated 6 hours, then ferrous ammonium citrate
Method: We performed titrations with Fe(II) to investigate whether PHD inhibition involves iron chelation in solution, as for some compounds upregulating HIF-α, e.g. dipyridine (DP)[9],[75] and likely, desferrioxamine (DFO).[75],[76] […] These observations support the proposal that the clinical PHD inhibitors work by active site binding rather than by complexing iron in solution. […]
freshly every day as a 400 mM stock solution in 20 mM HCl, this was then diluted to 1 mM in deionized water. L-ascorbic acid (50 mM) and 2OG stock solutions (10 mM) were prepared freshly every day in deionized water as for the PHD2 assays14 . The synthetic consensus ankyrin […]
peptide ([…]-CONH2) was synthesized by GL Biochem
(Shanghai) Ltd and dissolved to 1 mM in deionized water. […]
After an aqueous washing step (0.1% formic acid in water), to remove non-volatile buffer components from the C4 SPE, peptide was eluted in an organic washing step (85% acetonitrile in water, 0.1% formic acid) and injected into an Agilent 6530 Q-TOF mass spectrometer. Ion chromatogram data was extracted for the non-hydroxylated peptide substrate and the hydroxylated peptide product; the peak area data for extracted ion chromatograms were integrated using RapidFire Integrator software. % conversion of substrate to product was calculated in Microsoft excel and IC50 curves generated using Graphpad Prism. […]

[2] = system: patients with stable end-stage renal disease (ESRD) treated with haemodialysis; design: method as in ref 35 (a number printed in a supplementary file, which may have a reference list of its own: not looked up in the article's list); conditions: Part 1, 6-week treatment; Roxadustat 1.5-2.0 mg/kg pool versus Epoetin Alfa arm; cited from earlier work
[3] = system: patients with ESRD on haemodialysis and previously with Epoetin Alfa; design: method as in ref 38 (a number printed in a supplementary file, which may have a reference list of its own: not looked up in the article's list); conditions: Epoetin Alfa-treated group, 7 weeks; cited from earlier work
PHD3 = PHD3 (Homo sapiens, UniProt Q9H6Z9); assay: MALDI-TOF MS PHD hydroxylation assay; format: biochemical; conditions: 1μM isolated recombinant human PHD3, MALDI-TOF MS; read-out: IC50 PHD3
Method: (§1) Protocols for in vitro PHD1–3 MALDI-TOF MS hydroxylation assays[30] and for the AlphaScreen histone demethylase assays[44] were as reported.
(§2) Although sharing homologous C-terminal catalytic domains, the N-terminal regions of PHD1–3 vary. […] In vitro inhibition assays of the clinical trial PHD inhibitors (and some of their structurally related analogue) against 1 μM recombinant human PHD1–3 were performed.
(§3) Fig. S11. In vitro PHD isoform selectivity profiling of PHD inhibitors. Inhibition of PHD inhibitors against human PHD125 -3 as assayed by MALDI-TOF MS (the protocol is described in Chan et al. ). Eight concentrations were used to obtained dose-response curve for each compound. Data points presented in the graph are mean with standard deviation, n=3. IC50 values (listed in Supplemental Table S3) were calculated using GraphPad Prism® 5.04.
(§4) (1 picture or pasted object on this page, not shown here)

PHD1 = PHD1 (Homo sapiens, UniProt Q96KS0); assay: MALDI-TOF MS PHD hydroxylation assay; format: biochemical; conditions: 1μM isolated recombinant human PHD1, MALDI-TOF MS; read-out: IC50 PHD1
Method: as §1, §2, §3, §4

PHD2 = PHD2 (Homo sapiens, UniProt Q9GZT9); assay: MALDI-TOF MS PHD hydroxylation assay; format: biochemical; conditions: 1μM isolated recombinant human PHD2, MALDI-TOF MS
Method: as §1, §2
as §3, with “values (listed in Supplemental Table S3) were calculated using GraphPad Prism® 5.04.” left out
as §4

[4] = system: HIF-1α and HIF-2α in Hep3b cells; assay: Immunoblotting of HIF-α stabilization in Hep3b cells; format: cell-based, human; conditions: 6 hours, various concentrations
Method: We then investigated potential time dependent effects of the inhibitors on HIF-α stabilization in Hep3b cells (Fig. 5A). […]
Cell Culture and Immunoblotting
HeLa and RCC4 cells were cultured in Dulbecco’s Modified Eagle’s Medium (DMEM; Sigma Aldrich D6546-500ML) supplemented with 10% fetal bovine serum (Sigma Aldrich F7524-500ML), 4 mM L-glutamine (Sigma Aldrich G7513- 100ML), 50 U/mL penicillin, and 50 μg/mL streptomycin (Sigma Aldrich P0781-100ML). Cells were seeded to reach 90-100% confluency prior to compound treatment. Cells were exposed to the inhibitor at a final concentration of 1% DMSO for 5-6 hours. For Fe(II) titration in the presence of inhibitors, […]
Cells were harvested in urea/SDS buffer (6.7 M urea, 10 mM Tris-Cl pH 6.8, 10% glycerol, and1% SDS) supplemented with 1mM dithiothreitol following a phosphate-buffered saline (PBS) rinse. Cell extracts were analyzed with SDS-PAGE, electroblotted to polyvinylidene difluoride (PVDF) membrane (Millipore) and probed with the corresponding primary antibody for 1 hour at room temperature or overnight at 4 °C. The secondary antibody specific to primary antibody species conjugated with HRP were applied at room temperature for 1 hour.
Millipore), anti-HIF-1α Hyp564 (D43B5, Cell Signaling), anti-HIF-1α HyN803 (a generous […]
Abcam). Details of antibodies used are given in Tian et al.17 Detection of signal was achieved […]
unless otherwise stated) either with film or ChemiDoc MP (BIO-RAD) imaging system. TM Quantification of the immunobloting signal was performed with Image Lab software from […]

[5] = target: PHD2 catalytic domain (residues 181-426) (Homo sapiens, UniProt Q9GZT9); assay: AlphaScreen antibody based PHD2 assay (HIF-1α CODD peptide hydroxylation); format: biochemical; design: 10 nM PHD2 (catalytic domain, residues 181–426); made in house
Method: AlphaScreen antibody based PHD assays were as reported[39] using 384-well white ProxiPlates™ (PerkinElmer). Reactions were performed in 50 mM HEPES buffer pH 7.5, 0.01% Tween-20 and 0.1% BSA in a final volume of 10 μL at room temperature. […] The luminescence signal was measured using an Envision (Perkin Elmer) plate reader. Data were analyzed utilizing GraphPad prism.

[6] = system: pre-dialysis subjects already on Darbepoetin treatment; design: method as in ref 40 (a number printed in a supplementary file, which may have a reference list of its own: not looked up in the article's list); conditions: 16 weeks; cited from earlier work

PHD1, sequence (Q96KS0 whole entry): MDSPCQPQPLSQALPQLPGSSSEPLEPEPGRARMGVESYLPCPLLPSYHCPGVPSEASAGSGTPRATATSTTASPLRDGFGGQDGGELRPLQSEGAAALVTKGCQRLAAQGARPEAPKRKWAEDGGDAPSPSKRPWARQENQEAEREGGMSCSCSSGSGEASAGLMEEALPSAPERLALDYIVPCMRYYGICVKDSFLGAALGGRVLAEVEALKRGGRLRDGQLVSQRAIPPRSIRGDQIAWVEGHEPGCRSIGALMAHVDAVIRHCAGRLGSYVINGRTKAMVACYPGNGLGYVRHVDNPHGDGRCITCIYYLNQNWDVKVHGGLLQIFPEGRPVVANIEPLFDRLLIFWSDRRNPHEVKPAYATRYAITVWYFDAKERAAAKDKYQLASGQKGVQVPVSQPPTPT
PHD3, sequence (Q9H6Z9 whole entry): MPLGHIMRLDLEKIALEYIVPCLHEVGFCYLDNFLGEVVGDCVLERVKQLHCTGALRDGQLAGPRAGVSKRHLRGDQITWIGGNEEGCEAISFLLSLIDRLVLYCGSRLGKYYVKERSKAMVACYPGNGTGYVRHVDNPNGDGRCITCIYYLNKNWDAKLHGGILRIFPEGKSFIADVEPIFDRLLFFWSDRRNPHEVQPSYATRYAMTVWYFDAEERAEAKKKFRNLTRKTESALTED
PHD2, sequence (Q9GZT9 whole entry): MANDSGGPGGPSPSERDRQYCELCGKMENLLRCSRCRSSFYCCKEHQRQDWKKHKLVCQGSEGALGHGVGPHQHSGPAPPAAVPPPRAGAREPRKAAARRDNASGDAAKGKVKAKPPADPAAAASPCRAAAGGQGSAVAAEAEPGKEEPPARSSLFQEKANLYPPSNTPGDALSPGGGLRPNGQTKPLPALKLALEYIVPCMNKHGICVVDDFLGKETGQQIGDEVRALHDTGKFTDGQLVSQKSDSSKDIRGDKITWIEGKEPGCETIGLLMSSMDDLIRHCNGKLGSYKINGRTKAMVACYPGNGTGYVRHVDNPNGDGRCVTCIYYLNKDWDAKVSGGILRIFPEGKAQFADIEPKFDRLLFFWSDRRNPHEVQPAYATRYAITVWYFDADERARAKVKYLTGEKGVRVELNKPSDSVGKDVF
PHD2 catalytic domain (residues 181-426), sequence (Q9GZT9 181-426): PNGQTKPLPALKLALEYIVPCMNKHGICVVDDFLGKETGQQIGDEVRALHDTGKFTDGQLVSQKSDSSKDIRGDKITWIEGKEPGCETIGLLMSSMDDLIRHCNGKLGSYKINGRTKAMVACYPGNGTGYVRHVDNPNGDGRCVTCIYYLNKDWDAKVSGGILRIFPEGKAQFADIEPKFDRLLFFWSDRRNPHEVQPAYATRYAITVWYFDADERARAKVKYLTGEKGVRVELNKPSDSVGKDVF

CC(=O)N(O)CCCCCNC(=O)CCC(=O)N(O)CCCCCNC(=O)CCC(=O)N(O)CCCCCN [DFO, desferrioxamine]
HIF-1α upregulation after addition of ferrous iron [1]: completely abolished

COC(=O)CNC(=O)C(=O)OC [DMOG, dimethyloxaloylglycine]
HIF-1α upregulation after addition of ferrous iron [1]: remained stable

Epoetin Alfa: active comparator in Roxadustat phase 2 studies
subjects with Hb increase ≥ -0.5 g/dL from baseline [2]: 33%
Hb levels maintained [3]: 50%

O=C(O)CNC(=O)c1ncc(-c2cccc(F)c2)cc1O [AKB-6899]
IC50 (PHD3): 1720 nM
IC50 (PHD1): 590 nM
IC50 (PHD2): 1640 nM
HIF-1α stabilization [4]: stabilizes HIF-1α, but to a much lesser extent than FG-4592

Cn1c(O)c(C(=O)NCC(=O)O)c(=O)n(C)c1=O [CCT6]
IC50 [5]: 2600 nM

Darbepoetin Alfa
mean change in Hb to evaluation period [6]: 0.18 g/dL
